Results: patent US10226453B2, “3-(1H-indol-2-yl)-1H-pyrazolo[4,3-B]pyridines and therapeutic uses thereof” (Samumed, LLC, priority 2015, dated 2019)

These compounds were tested on IL-6 (THP-1 cells) (assay: IL-6 inhibition in LPS-stimulated THP-1 human monocyte cells (HTRF)). Settings: LPS 500 ng/mL, 22 hours, IL6 HTRF.
Assay type: cell-based
How it was run: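 THP-1 cells, serum-reduced (1% FBS) for 24 h, were preincubated with compound (10-point 1:3 series from 10 μM, 0.1% DMSO) for 2 h, then stimulated with 500 ng/mL LPS for 22 h at 37° C. IL-6 was read by HTRF (665/620 nm ratio) and normalized to DMSO. EC50 from four-parameter fit; % inhibition at 10 μM given if EC50 >10 μM.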

| EC50 [nM] | Structure (SMILES) |
| --- | --- |
| 2720 | CC(C)(C)C(=O)Nc1cncc(-c2ccc3[nH]nc(-c4cc5c(-c6cccc(F)c6)cccc5[nH]4)c3n2)c1 [Compound 8, N-(5-(3-(4-(3-Fluorophenyl)-1H-indol-2-yl)-1H-pyrazolo[4,3-b]pyridin-5-yl)pyridin-3-yl)pivalamide] |
| 549 | CN(C)Cc1cncc(-c2ccc3[nH]nc(-c4cc5c(-c6ccc(F)cc6)cccc5[nH]4)c3n2)c1 [Compound 41, 1-(5-(3-(4-(4-Fluorophenyl)-1H-indol-2-yl)-1H-pyrazolo[4,3-b]pyridin-5-yl)pyridin-3-yl)-N,N-dimethylmethanamine] |
| 103 | Fc1ccc(-c2cccc3[nH]c(-c4n[nH]c5ccc(-c6cncnc6)nc45)cc23)cc1 [Compound 55, 3-(4-(4-Fluorophenyl)-1H-indol-2-yl)-5-(pyrimidin-5-yl)-1H-pyrazolo[4,3-b] pyridine] |
| 271 | Fc1ccccc1-c1cccc2[nH]c(-c3n[nH]c4ccc(-c5cncc(CN6CCCCC6)c5)nc34)cc12 [Compound 71, 3-(4-(2-Fluorophenyl)-1H-indol-2-yl)-5-(5-(piperidin-1-ylmethyl)pyridin-3-yl)-1H-pyrazolo[4,3-b]pyridine] |
| 6730 | Fc1ccccc1-c1cccc2[nH]c(-c3n[nH]c4ccc(-c5cncc(CNCc6ccccc6)c5)nc34)cc12 [Compound 80, N-Benzyl-1-(5-(3-(4-(2-fluorophenyl)-1H-indol-2-yl)-1H-pyrazolo[4,3-b]pyridin-5-yl)pyridin-3-yl)methanamine] |
| 31 | c1cncc(-c2ccc3[nH]nc(-c4cc5c(-c6cccnc6)cccc5[nH]4)c3n2)c1 [Compound 88, 5-(Pyridin-3-yl)-3-(4-(pyridin-3-yl)-1H-indol-2-yl)-1H-pyrazolo[4,3-b] pyridine] |
| 154 | CN(C)Cc1cncc(-c2ccc3[nH]nc(-c4cc5c(-c6cccnc6)cccc5[nH]4)c3n2)c1 [Compound 97, N,N-Dimethyl-1-(5-(3-(4-(pyridin-3-yl)-1H-indol-2-yl)-1H-pyrazolo[4,3-b]pyridin-5-yl)pyridin-3-yl)methanamine] |
| 52 | Nc1cncc(-c2ccc3[nH]nc(-c4cc5c(-c6ccncc6)cccc5[nH]4)c3n2)c1 [Compound 115, 5-(3-(4-(Pyridin-4-yl)-1H-indol-2-yl)-1H-pyrazolo[4,3-b]pyridin-5-yl) pyridin-3-amine] |
| 21 | Cc1ccncc1-c1ccc2[nH]nc(-c3cc4c(-c5ccncc5)cccc4[nH]3)c2n1 [Compound 117, 5-(4-Methylpyridin-3-yl)-3-(4-(pyridin-4-yl)-1H-indol-2-yl)-1H-pyrazolo [4,3-b]pyridine] |
| 483 | c1cc(-c2ccncc2)c2cc(-c3n[nH]c4ccc(-c5cncc(CN6CCCCC6)c5)nc34)[nH]c2c1 [Compound 127, 5-(5-(Piperidin-1-ylmethyl)pyridin-3-yl)-3-(4-(pyridin-4-yl)-1H-indol-2-yl)-1H-pyrazolo[4,3-b]pyridine] |
| 3240 | c1cc(-c2ccncc2)c2cc(-c3n[nH]c4ccc(-c5cncc(CNCC6CCCC6)c5)nc34)[nH]c2c1 [Compound 137, 1-Cyclopentyl-N-((5-(3-(4-(pyridin-4-yl)-1H-indol-2-yl)-1H-pyrazolo[4,3-b]pyridin-5-yl)pyridin-3-yl)methyl)methanamine] |
| 249 | c1ccc(-c2ccc3[nH]nc(-c4cc5c(-c6ccncc6)cccc5[nH]4)c3n2)nc1 [Compound 140, 5-(Pyridin-2-yl)-3-(4-(pyridin-4-yl)-1H-indol-2-yl)-1H-pyrazolo[4,3-b] pyridine] |
| 306 | FC1(F)CCN(Cc2cncc(-c3ccc4[nH]nc(-c5cc6c(-c7ccccn7)cccc6[nH]5)c4n3)c2)C1 [Compound 166, 5-(5-((3,3-Difluoropyrrolidin-1-yl)methyl)pyridin-3-yl)-3-(4-(pyridin-2-yl)-1H-indol-2-yl)-1H-pyrazolo[4,3-b]pyridine] |
| > 10000 | c1ccc(-c2cccc3[nH]c(-c4n[nH]c5ccc(-c6cncnc6)nc45)cc23)nc1 [Compound 167, 3-(4-(Pyridin-2-yl)-1H-indol-2-yl)-5-(pyrimidin-5-yl)-1H-pyrazolo[4,3-b] pyridine] |
| 85 | CCCCC(=O)Nc1cncc(-c2ccc3[nH]nc(-c4cc5c(N6CCCCC6)cccc5[nH]4)c3n2)c1 [Compound 187, N-(5-(3-(4-(Piperidin-1-yl)-1H-indol-2-yl)-1H-pyrazolo[4,3-b]pyridin-5-yl)pyridin-3-yl)pentanamide] |
| 1860 | c1ccc(-c2ccc3[nH]nc(-c4cc5c(N6CCCCC6)cccc5[nH]4)c3n2)nc1 [Compound 196, 3-(4-(Piperidin-1-yl)-1H-indol-2-yl)-5-(pyridin-2-yl)-1H-pyrazolo[4,3-b] pyridine] |
| 1280 | Cc1ccncc1-c1ccc2[nH]nc(-c3cc4c(N5CCN(C)CC5)cccc4[nH]3)c2n1 [Compound 229, 3-(4-(4-Methylpiperazin-1-yl)-1H-indol-2-yl)-5-(4-methylpyridin-3-yl)-1H-pyrazolo[4,3-b]pyridine] |

| EC50 [nM] | Structure (SMILES) |
| --- | --- |
| 741 | CN1CCN(c2cccc3[nH]c(-c4n[nH]c5ccc(-c6cncc(NC(=O)c7ccccc7)c6)nc45)cc23)CC1 [Compound 235, N-(5-(3-(4-(4-Methylpiperazin-1-yl)-1H-indol-2-yl)-1H-pyrazolo[4,3-b]pyridin-5-yl)pyridin-3-yl)benzamide] |
| 751 | CN1CCN(c2cccc3[nH]c(-c4n[nH]c5ccc(-c6cncnc6)nc45)cc23)CC1 [Compound 251, 3-(4-(4-Methylpiperazin-1l-yl)-1H-indol-2-yl)-5-(pyrimidin-5-yl)-1H-pyrazolo[4,3-b]pyridine] |
| 13 | c1cncc(-c2ccc3[nH]nc(-c4cc5ccccc5[nH]4)c3n2)c1 [Compound 256, 3-(1H-Indol-2-yl)-5-(pyridin-3-yl)-1H-pyrazolo[4,3-b]pyridine] |
| > 10000 | CN(C)Cc1cncc(-c2ccc3[nH]nc(-c4cc5ccccc5[nH]4)c3n2)c1 [Compound 265, 1-(5-(3-(1H-Indol-2-yl)-1H-pyrazolo[4,3-b]pyridin-5-yl)pyridin-3-yl)-N,N-dimethylmethanamine] |
| 207 | FC1(F)CCN(Cc2cncc(-c3ccc4[nH]nc(-c5cc6ccccc6[nH]5)c4n3)c2)C1 [Compound 278, 5-(5-((3,3-Difluoropyrrolidin-1-yl)methyl)pyridin-3-yl)-3-(1H-indol-2-yl)-1H-pyrazolo[4,3-b]pyridine] |
| 1370 | CN(C)c1cncc(-c2ccc3[nH]nc(-c4cc5c(-c6ccoc6)cccc5[nH]4)c3n2)c1 [Compound 315, 5-(3-(4-(Furan-3-yl)-1H-indol-2-yl)-1H-pyrazolo[4,3-b]pyridin-5-yl)-N,N-dimethylpyridin-3-amine] |
| 3570 | c1cc(-c2ccoc2)c2cc(-c3n[nH]c4ccc(-c5cncc(CNCC6CCCC6)c5)nc34)[nH]c2c1 [Compound 333, 1-Cyclopentyl-N-((5-(3-(4-(furan-3-yl)-1H-indol-2-yl)-1H-pyrazolo[4,3-b]pyridin-5-yl)pyridin-3-yl)methyl)methanamine] |
| 6340 | FC1(F)CCN(Cc2cncc(-c3ccc4[nH]nc(-c5cc6c(-c7cccs7)cccc6[nH]5)c4n3)c2)C1 [Compound 362, 5-(5-((3,3-Difluoropyrrolidin-1-yl)methyl)pyridin-3-yl)-3-(4-(thiophen-2-yl)-1H-indol-2-yl)-1H-pyrazolo[4,3-b]pyridine] |
| 68 | CN(C)CCNc1cc(F)cc(-c2cccc3[nH]c(-c4n[nH]c5ccc(-c6cccnc6)nc45)cc23)c1 [Compound 452, N^1-(3-Fluoro-5-(2-(5-(pyridin-3-yl)-1H-pyrazolo[4,3-b]pyridin-3-yl)-1H-indol-4-yl)phenyl)-N^2,N^2-dimethylethane-1,2-diamine] |
| 209 | CN(C)CCNc1cc(F)cc(-c2cccc3[nH]c(-c4n[nH]c5ccc(-c6cncc(CN7CCCCC7)c6)nc45)cc23)c1 [Compound 463, N^1-(3-Fluoro-5-(2-(5-(5-(piperidin-1-ylmethyl)pyridin-3-yl)-1H-pyrazolo [4,3-b]pyridin-3-yl)-1H-indol-4-yl)phenyl)-N^2,N^2-dimethylethane-1,2-diamine] |
| 18 | CN(C)CCNc1cc(F)cc(-c2cccc3[nH]c(-c4n[nH]c5ccc(-c6cncnc6)nc45)cc23)c1 [Compound 475, N^1-(3-Fluoro-5-(2-(5-(pyrimidin-5-yl)-1H-pyrazolo[4,3-b]pyridin-3-yl)-1H-indol-4-yl)phenyl)-N^2,N^2-dimethylylethane-1,2-diamine] |
| 278 | CN(C)CCNc1cc(F)cc(-c2cccc3[nH]c(-c4n[nH]c5ccc(-c6ccccn6)nc45)cc23)c1 [Compound 476, N^1-(3-Fluoro-5-(2-(5-(pyridin-2-yl)-1H-pyrazolo[4,3-b]pyridin-3-yl)-1H-indol-4-yl)phenyl)-N^2,N^2-dimethylethane-1,2-diamine] |
| 101 | Cc1ccncc1-c1ccc2[nH]nc(-c3cc4c(-c5cc(F)cc(CNS(C)(=O)=O)c5)cccc4[nH]3)c2n1 [Compound 481, N-(3-Fluoro-5-(2-(5-(4-methylpyridin-3-yl)-1H-pyrazolo[4,3-b]pyridin-3-yl)-1H-indol-4-yl)benzyl)methanesulfonamide] |
| 8 | Nc1cncc(-c2ccc3[nH]nc(-c4cc5ncccc5[nH]4)c3n2)c1 [Compound 507, 5-(3-(1H-Pyrrolo[3,2-b]pyridin-2-yl)-1H-pyrazolo[4,3-b]pyridin-5-yl) pyridin-3-amine] |
| 2910 | Fc1cccc(-c2cccc3[nH]c(-c4n[nH]c5ccc(-c6cncc(OCc7ccccc7)c6)nc45)cc23)c1 [Compound 546, 5-(5-(Benzyloxy)pyridin-3-yl)-3-(4-(3-fluorophenyl)-1H-indol-2-yl)-1H-pyrazolo[4,3-b]pyridine] |
| 27 | c1cc(-c2ccncc2)c2cc(-c3n[nH]c4ccc(-c5cncc(OCCN6CCCC6)c5)nc34)[nH]c2c1 [Compound 606, 3-(4-(Pyridin-4-yl)-1H-indol-2-yl)-5-(5-(2-(pyrrolidin-1-yl)ethoxy)pyridin-3-yl)-1H-pyrazolo[4,3-b]pyridine] |

Same assay, conditions: LPS 500 ng/mL, given where EC50 >10 μM, 10 μM, read-out: percent inhibition at 10 μM

| Structure (SMILES) | inhibition at 10 µM [%] |
| --- | --- |
| c1ccc(-c2cccc3[nH]c(-c4n[nH]c5ccc(-c6cncnc6)nc45)cc23)nc1 [Compound 167, 3-(4-(Pyridin-2-yl)-1H-indol-2-yl)-5-(pyrimidin-5-yl)-1H-pyrazolo[4,3-b] pyridine] | 12.8 |
| CN(C)Cc1cncc(-c2ccc3[nH]nc(-c4cc5ccccc5[nH]4)c3n2)c1 [Compound 265, 1-(5-(3-(1H-Indol-2-yl)-1H-pyrazolo[4,3-b]pyridin-5-yl)pyridin-3-yl)-N,N-dimethylmethanamine] | 0 |
